Legend:
human NTPDase1 = molecular target: T1, human NTPDase1 (Homo sapiens, UniProt P49961); test: NTPDase inhibition assay by capillary electrophoresis (CE), NTPDase1; format: biochemical; details: ATP 320 μM; for Ki: CE method, Km 17 μM, read-out: NTPDase1 Ki [μM] ± SEM
T1 sequence (P49961 1-510): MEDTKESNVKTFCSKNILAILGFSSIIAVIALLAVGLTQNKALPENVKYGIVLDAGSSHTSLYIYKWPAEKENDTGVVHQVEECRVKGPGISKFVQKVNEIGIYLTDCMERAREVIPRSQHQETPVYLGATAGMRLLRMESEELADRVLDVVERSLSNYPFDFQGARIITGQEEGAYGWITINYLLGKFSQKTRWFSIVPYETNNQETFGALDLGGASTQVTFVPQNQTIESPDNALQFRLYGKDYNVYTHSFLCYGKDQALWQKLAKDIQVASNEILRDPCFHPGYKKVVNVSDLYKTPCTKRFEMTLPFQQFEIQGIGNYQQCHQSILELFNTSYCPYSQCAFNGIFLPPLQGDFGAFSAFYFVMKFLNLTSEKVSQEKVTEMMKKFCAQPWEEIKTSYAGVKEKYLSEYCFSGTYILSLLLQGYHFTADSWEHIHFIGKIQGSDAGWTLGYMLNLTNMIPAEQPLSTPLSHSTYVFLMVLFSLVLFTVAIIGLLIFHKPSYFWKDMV
Outline: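 Recombinant or native human NTPDase was run with 320 μM ATP in Hepes buffer pH 7.4 (NaCl, KCl, MgCl2, CaCl2) at 37° C for 15 min, stopped by heating at 99° C. Products were quantified by capillary electrophoresis (UV 210 nm, UMP internal standard). IC50 from 6-8 concentrations was converted to Ki by Cheng-Prusoff.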

human NTPDase2 = molecular target: T2, human NTPDase2 (Homo sapiens, UniProt Q9Y5L3); test: NTPDase inhibition assay by capillary electrophoresis (CE), NTPDase2; format: biochemical; details: for Ki: human NTPDase2, CE method, ATP 320 μM, Km 70 μM, read-out: NTPDase2 Ki [μM] ± SEM
T2 sequence (Q9Y5L3 1-495): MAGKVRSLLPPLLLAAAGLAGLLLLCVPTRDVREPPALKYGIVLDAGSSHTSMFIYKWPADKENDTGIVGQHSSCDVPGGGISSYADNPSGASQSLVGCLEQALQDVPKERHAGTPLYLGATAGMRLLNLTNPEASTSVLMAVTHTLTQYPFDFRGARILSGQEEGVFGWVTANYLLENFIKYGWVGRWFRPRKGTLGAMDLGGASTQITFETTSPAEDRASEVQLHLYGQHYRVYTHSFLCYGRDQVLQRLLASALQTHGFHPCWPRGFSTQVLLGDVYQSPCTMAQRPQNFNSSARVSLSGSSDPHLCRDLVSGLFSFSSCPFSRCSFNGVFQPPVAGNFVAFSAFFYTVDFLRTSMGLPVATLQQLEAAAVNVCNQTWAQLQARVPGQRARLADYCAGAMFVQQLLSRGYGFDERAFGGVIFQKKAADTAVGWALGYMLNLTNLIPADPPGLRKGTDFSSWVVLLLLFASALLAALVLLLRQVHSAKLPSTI

rP2Y6 = rP2Y6 (Rattus norvegicus, UniProt Q63371); test: Inhibition of UDP binding at rP2Y6; details: read-out: rP2Y6 % inhibition of UDP binding at 100 μM, n = 3, mean ± SEM
hP2Y12 = hP2Y12 (Homo sapiens, UniProt Q9H244); test: Inhibition of [3H]PSB-0413 binding at hP2Y12; details: mean ± SEM, read-out: hP2Y12 % Inhibition of [^3H]PSB-0413 Binding at 10 μM, n = 3
Protocol: In table 2 inhibition data of selected examples at human P2Y receptor subtypes were collected. It can be seen that no compound was identified that inhibited P2Y receptors at high concentrations of 100 μM and 10 μM, respectively.

hP2Y12, sequence (Q9H244 whole entry): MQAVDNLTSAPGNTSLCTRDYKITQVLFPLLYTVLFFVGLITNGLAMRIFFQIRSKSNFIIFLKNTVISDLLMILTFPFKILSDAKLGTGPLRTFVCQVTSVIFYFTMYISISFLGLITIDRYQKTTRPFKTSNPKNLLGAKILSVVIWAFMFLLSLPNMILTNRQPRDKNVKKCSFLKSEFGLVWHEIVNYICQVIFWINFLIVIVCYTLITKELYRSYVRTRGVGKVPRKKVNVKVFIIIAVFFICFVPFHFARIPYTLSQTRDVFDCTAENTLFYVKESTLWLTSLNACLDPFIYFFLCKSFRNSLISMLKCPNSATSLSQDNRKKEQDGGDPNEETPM
rP2Y6, sequence (Q63371 whole entry): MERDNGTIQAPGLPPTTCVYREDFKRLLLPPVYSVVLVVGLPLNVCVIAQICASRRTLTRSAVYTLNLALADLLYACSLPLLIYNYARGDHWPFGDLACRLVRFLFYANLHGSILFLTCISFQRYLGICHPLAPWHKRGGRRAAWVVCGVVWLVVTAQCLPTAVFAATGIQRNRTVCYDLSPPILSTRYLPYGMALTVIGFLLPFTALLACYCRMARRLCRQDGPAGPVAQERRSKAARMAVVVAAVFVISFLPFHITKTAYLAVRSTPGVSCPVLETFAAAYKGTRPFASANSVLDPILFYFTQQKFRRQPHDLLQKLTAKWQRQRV

SMILES	inhibition at 1000 µM (human NTPDase1; 1 mM compound) [%]	Ki (human NTPDase1) [µM]	Ki (human NTPDase2) [µM]	inhibitor of NTPDase (in words) (human NTPDase2; in words, compare Tab. 1)	inhibition at 100 µM (rP2Y6) [%]	inhibition at 10 µM (hP2Y12) [%]
CCOP(=O)(Cc1ccc(NC(=O)CNC(=O)[C@H]2O[C@@H](n3ccc(=O)[nH]c3=O)C(O)C2O)cc1)OCC (stereo in doubt) [Compound 2, 4-[2-((2S,3R,4S,5R)-5-(2,4-Dioxo-3,4-dihydropyrimidin-1(2H)-yl)-3,4-dihydroxy-tetrahydrofurane-2-carboxamido)ethaneamido]benzylphosphonic acid diethylester]	50	> 50	8.2 ± 2.1	excellent inhibitor	-10 ± 10	2 ± 6
CCOP(=O)(Cc1ccc(NC(=O)CCNC(=O)[C@H]2O[C@@H](n3ccc(=O)[nH]c3=O)C(O)C2O)cc1)OCC (stereo in doubt) [Compound 3, 4-[3-((2S,3R,4S,5R)-5-(2,4-Dioxo-3,4-dihydropyrimidin-1(2H)-yl)-3,4-di-hydroxy-tetrahydrofurane-2-carboxamido)propaneamido]benzylphosphonic acid diethylester]		55.2 ± 2.6	173 ± 17		7 ± 7	9 ± 4

Source: US20100204182A1, “ECTONUCLEOTIDASE INHIBITORS” (RHEINISCHE FRIEDRICH-WILHELMS-UNIVERSITAT BONN, priority 2006, published 2010)
